Data published in ChEMBL document CHEMBL3885881, “DrugMatrix”.

Species on record: Rattus norvegicus
Assay: DrugMatrix - Regimen: Daily Repeat
Type: toxicity, organism-based, Sprague-Dawley
Design: regimen Daily Repeat, gender Male, age 6-8 weeks
Settings: in vivo, po, route oral GAVAGE, vehicle 100 % SALINE; for ABSOLUTE BASOPHIL / ABSOLUTE EOSINOPHIL / ABSOLUTE LYMPHOCYTE / ABSOLUTE MONOCYTE / ABSOLUTE SEGMENTED NEUTROPHIL / BASOPHIL / EOSINOPHIL / ERYTHROCYTE COUNT / HEMATOCRIT / HEMOGLOBIN / LEUKOCYTE COUNT / LYMPHOCYTE / MEAN CORPUSCULAR HEMOGLOBIN / MEAN CORPUSCULAR HEMOGLOBIN CONCENTRATION / MEAN CORPUSCULAR VOLUME / MONOCYTE / NEUTROPHIL / NUCLEATED RED BLOOD CELLS / PLATELET COUNT: tissue Blood; for ALANINE AMINOTRANSFERASE / ALBUMIN / ALKALINE PHOSPHATASE / ASPARTATE AMINOTRANSFERASE / BLOOD UREA NITROGEN / CARBON DIOXIDE / CHLORIDE / CHOLESTEROL / CREATINE PHOSPHOKINASE / CREATININE / GLUCOSE / LACTATE DEHYDROGENASE / LIPASE / PHOSPHORUS / POTASSIUM / SODIUM / TOTAL BILIRUBIN / TOTAL PROTEIN / URIC ACID: tissue Plasma
[1] = 0 mg/kg, 72 h, dose level Control, time 3 day
[2] = 0 mg/kg, 120 h, dose level Control, time 5 day
[3] = 11 mg/kg, 72 h, dose level High, time 3 day

Cc1cc(CC(=O)O)n(C)c1C(=O)c1ccc(Cl)cc1 [ZOMEPIRAC]
ABSOLUTE BASOPHIL [1]: 0 CELLS/uL
ABSOLUTE EOSINOPHIL [1]: 65.67 CELLS/uL
ABSOLUTE LYMPHOCYTE [1]: 17283.5 CELLS/uL
ABSOLUTE MONOCYTE [1]: 0 CELLS/uL
ABSOLUTE SEGMENTED NEUTROPHIL [1]: 1284.17 CELLS/uL
BASOPHIL [1]: 0%
EOSINOPHIL [1]: 0.33%
ERYTHROCYTE COUNT [1]: 5.46 x10E6/uL
HEMATOCRIT [1]: 34.28%
HEMOGLOBIN [1]: 13.78 G/DL
LEUKOCYTE COUNT [1]: 18.63 x10E3/uL
LYMPHOCYTE [1]: 92.67%
MEAN CORPUSCULAR HEMOGLOBIN [1]: 25.3 pg
MEAN CORPUSCULAR HEMOGLOBIN CONCENTRATION [1]: 40.22 G/DL
MEAN CORPUSCULAR VOLUME [1]: 62.87 fL
MONOCYTE [1]: 0%
NEUTROPHIL [1]: 7%
NUCLEATED RED BLOOD CELLS [1]: 0 /100WBC
PLATELET COUNT [1]: 1244.83 x10E3/uL
ALANINE AMINOTRANSFERASE [1]: 52.83 u/L
ALBUMIN [1]: 4 G/DL
ALKALINE PHOSPHATASE [1]: 327.67 u/L
ASPARTATE AMINOTRANSFERASE [1]: 78.83 u/L
BLOOD UREA NITROGEN [1]: 13.83 mg/dL
CARBON DIOXIDE [1]: 26.67 mmol/L
CHLORIDE [1]: 99.67 MEQ/L
CHOLESTEROL [1]: 69 mg/dL
CREATINE PHOSPHOKINASE [1]: 350.17 u/L
CREATININE [1]: 0.21 mg/dL
GLUCOSE [1]: 173.83 mg/dL
LACTATE DEHYDROGENASE [1]: 168.33 u/L
LIPASE [1]: 11 u/L
PHOSPHORUS [1]: 12.7 mg/dL
POTASSIUM [1]: 6.88 MEQ/L
SODIUM [1]: 141.68 MEQ/L
TOTAL BILIRUBIN [1]: 0.22 mg/dL
TOTAL PROTEIN [1]: 6.02 G/DL
URIC ACID [1]: 1.9 mg/dL
ABSOLUTE BASOPHIL [2]: 0 CELLS/uL
ABSOLUTE EOSINOPHIL [2]: 14.83 CELLS/uL
ABSOLUTE LYMPHOCYTE [2]: 12880 CELLS/uL
ABSOLUTE MONOCYTE [2]: 90.67 CELLS/uL
ABSOLUTE SEGMENTED NEUTROPHIL [2]: 864.5 CELLS/uL
BASOPHIL [2]: 0%
EOSINOPHIL [2]: 0.17%
ERYTHROCYTE COUNT [2]: 5.83 x10E6/uL
HEMATOCRIT [2]: 35.87%
HEMOGLOBIN [2]: 14 G/DL
LEUKOCYTE COUNT [2]: 13.85 x10E3/uL
LYMPHOCYTE [2]: 92.5%
MEAN CORPUSCULAR HEMOGLOBIN [2]: 24.03 pg
MEAN CORPUSCULAR HEMOGLOBIN CONCENTRATION [2]: 39.03 G/DL
MEAN CORPUSCULAR VOLUME [2]: 61.53 fL
MONOCYTE [2]: 0.67%
NEUTROPHIL [2]: 6.67%
NUCLEATED RED BLOOD CELLS [2]: 0 /100WBC
PLATELET COUNT [2]: 1041.83 x10E3/uL
ALANINE AMINOTRANSFERASE [2]: 56 u/L
ALBUMIN [2]: 4.47 G/DL
ALKALINE PHOSPHATASE [2]: 319 u/L
ASPARTATE AMINOTRANSFERASE [2]: 89.17 u/L
BLOOD UREA NITROGEN [2]: 15.2 mg/dL
CARBON DIOXIDE [2]: 24 mmol/L
CHLORIDE [2]: 104.4 MEQ/L
CHOLESTEROL [2]: 69.5 mg/dL
CREATINE PHOSPHOKINASE [2]: 295.83 u/L
CREATININE [2]: 0.21 mg/dL
GLUCOSE [2]: 124.33 mg/dL
LACTATE DEHYDROGENASE [2]: 325.5 u/L
LIPASE [2]: 14.67 u/L
PHOSPHORUS [2]: 11.45 mg/dL
POTASSIUM [2]: 6.74 MEQ/L
SODIUM [2]: 151.4 MEQ/L
TOTAL BILIRUBIN [2]: 0.23 mg/dL
TOTAL PROTEIN [2]: 6.45 G/DL
URIC ACID [2]: 1.18 mg/dL
ABSOLUTE BASOPHIL [3]: 0 CELLS/uL
ABSOLUTE EOSINOPHIL [3]: 0 CELLS/uL
ABSOLUTE LYMPHOCYTE [3]: 16900 CELLS/uL
ABSOLUTE MONOCYTE [3]: 480 CELLS/uL
ABSOLUTE SEGMENTED NEUTROPHIL [3]: 3253.33 CELLS/uL
BASOPHIL [3]: 0%
EOSINOPHIL [3]: 0%
ERYTHROCYTE COUNT [3]: 5.38 x10E6/uL
HEMATOCRIT [3]: 33.2%
HEMOGLOBIN [3]: 13.37 G/DL
LEUKOCYTE COUNT [3]: 20.63 x10E3/uL
LYMPHOCYTE [3]: 83.67%
MEAN CORPUSCULAR HEMOGLOBIN [3]: 24.83 pg
MEAN CORPUSCULAR HEMOGLOBIN CONCENTRATION [3]: 40.27 G/DL
MEAN CORPUSCULAR VOLUME [3]: 61.67 fL
MONOCYTE [3]: 2%
NEUTROPHIL [3]: 14.33%
NUCLEATED RED BLOOD CELLS [3]: 0 /100WBC
PLATELET COUNT [3]: 1231.67 x10E3/uL
ALANINE AMINOTRANSFERASE [3]: 59 u/L
ALBUMIN [3]: 3.87 G/DL
ALKALINE PHOSPHATASE [3]: 255.33 u/L
ASPARTATE AMINOTRANSFERASE [3]: 72.67 u/L
BLOOD UREA NITROGEN [3]: 13.33 mg/dL
CARBON DIOXIDE [3]: 25.33 mmol/L
CHLORIDE [3]: 101 MEQ/L
CHOLESTEROL [3]: 69 mg/dL
CREATINE PHOSPHOKINASE [3]: 224.67 u/L
CREATININE [3]: 0.23 mg/dL
GLUCOSE [3]: 183.67 mg/dL
LACTATE DEHYDROGENASE [3]: 112.67 u/L
LIPASE [3]: 10.33 u/L
PHOSPHORUS [3]: 11.5 mg/dL
POTASSIUM [3]: 5.88 MEQ/L
SODIUM [3]: 141.43 MEQ/L
TOTAL BILIRUBIN [3]: 0.2 mg/dL
TOTAL PROTEIN [3]: 5.77 G/DL
URIC ACID [3]: 1.47 mg/dL
